Here are results for 34 compounds from ChEMBL document CHEMBL3751783, “Straightforward and effective synthesis of γ-aminobutyric acid transporter subtype 2-selective acyl-substituted azaspiro[4.5]decanes” (Bioorg Med Chem Lett, 2016).

A value given as a limit tells only on which side of the number the result lay.

Holding throughout (assay type): cell-based
In experiment [1] the target is Sodium- and chloride-dependent GABA transporter 1 (Mus musculus, UniProt P31648). Briefly: Inhibition of mouse GAT1 mediated [3]GABA uptake expressed in HEK293 cells after 3 mins by scintillation counting.
The target in another experiment is T1, GABA transporter 2 (Mus musculus, UniProt P31651).
T1 sequence (P31651 whole entry): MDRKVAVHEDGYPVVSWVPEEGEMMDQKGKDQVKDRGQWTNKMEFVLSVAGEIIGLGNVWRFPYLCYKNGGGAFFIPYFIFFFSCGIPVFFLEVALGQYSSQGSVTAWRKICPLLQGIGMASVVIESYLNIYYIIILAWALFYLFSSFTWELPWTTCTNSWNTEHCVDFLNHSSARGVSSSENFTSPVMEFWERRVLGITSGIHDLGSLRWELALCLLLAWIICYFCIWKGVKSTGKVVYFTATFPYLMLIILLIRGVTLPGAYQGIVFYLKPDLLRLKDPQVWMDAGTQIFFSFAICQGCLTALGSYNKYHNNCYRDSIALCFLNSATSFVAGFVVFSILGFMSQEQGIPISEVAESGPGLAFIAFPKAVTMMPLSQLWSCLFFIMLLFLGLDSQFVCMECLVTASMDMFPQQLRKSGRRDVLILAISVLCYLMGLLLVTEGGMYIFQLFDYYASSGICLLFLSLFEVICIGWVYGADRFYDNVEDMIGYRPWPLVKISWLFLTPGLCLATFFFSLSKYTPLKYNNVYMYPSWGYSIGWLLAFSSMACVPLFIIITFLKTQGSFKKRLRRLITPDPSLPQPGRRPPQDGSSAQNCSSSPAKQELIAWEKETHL
Briefly: Inhibition of mouse BGT1 mediated [3]GABA uptake expressed in HEK293 cells after 3 mins by scintillation counting.

A further experiment deals with T2, GABA transporter 3 (Mus musculus, UniProt P31649).
T2 sequence (P31649 whole entry): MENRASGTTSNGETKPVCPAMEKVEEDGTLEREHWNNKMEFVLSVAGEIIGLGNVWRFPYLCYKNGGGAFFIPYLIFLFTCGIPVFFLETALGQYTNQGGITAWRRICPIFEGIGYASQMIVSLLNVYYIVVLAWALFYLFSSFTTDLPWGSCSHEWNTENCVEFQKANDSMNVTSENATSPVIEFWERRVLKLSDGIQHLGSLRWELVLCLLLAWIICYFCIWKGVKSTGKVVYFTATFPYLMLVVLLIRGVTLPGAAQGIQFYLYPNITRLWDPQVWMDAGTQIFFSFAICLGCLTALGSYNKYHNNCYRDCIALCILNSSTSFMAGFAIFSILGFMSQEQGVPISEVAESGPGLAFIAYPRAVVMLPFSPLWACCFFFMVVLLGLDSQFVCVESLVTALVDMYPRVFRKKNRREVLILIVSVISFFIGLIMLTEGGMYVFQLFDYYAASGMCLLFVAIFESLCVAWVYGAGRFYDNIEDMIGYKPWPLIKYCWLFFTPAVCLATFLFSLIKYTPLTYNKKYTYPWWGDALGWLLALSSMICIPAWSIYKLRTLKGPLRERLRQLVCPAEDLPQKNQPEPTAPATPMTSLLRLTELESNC
Briefly: Inhibition of mouse GAT2 mediated [3]GABA uptake expressed in HEK293 cells after 3 mins by scintillation counting.

Turning to `CCOC(=O)C1CCCN(CCC(=O)N2C(=O)CCC23CCCCC3)C1` (stereo not given), the IC50 in experiment [1] was over 1000 µM; against GABA transporter 2, 164 µM; against GABA transporter 3, over 1000 µM.
For `C=CC(=O)N1C(=O)CCC12CCCCC2=O` (stereo not given), the IC50 (in experiment [1]; against GABA transporter 2; against GABA transporter 3) was over 1000 µM in each case.
As to `C=CC(=O)N1C(=O)CCC12CCCCC2`, the IC50 in experiment [1] is 371 µM; on GABA transporter 2, 103 µM; on GABA transporter 3, over 1000 µM.
The matching figures for `O=C1CCC2(CCCC23OCCO3)N1` (stereo not given): over 1000 µM, over 1000 µM and over 1000 µM.
Turning to `C=CC(=O)N1C(=O)C=CC12CCCC21OCCO1` (stereo not given), the IC50 (in experiment [1]; at GABA transporter 2; against GABA transporter 3) was over 1000 µM in each case.
As to `O=C(CBr)N1CCCC12CCCCC2`, the results for the IC50 (in experiment [1]; against GABA transporter 2; at GABA transporter 3) were 233 µM, over 5000 µM and over 5000 µM, respectively.
Consider `CCN(CC)CCC(=O)N1CCCC12CCCCC2`, for which the IC50 (in experiment [1]; at GABA transporter 2; against GABA transporter 3) was over 1000 µM throughout.
For the compound `O=C(CCN1CCOCC1)N1C(=O)CCC12CCCCC2`, the IC50 (in experiment [1]; on GABA transporter 2; at GABA transporter 3) was over 1000 µM in each case.
On to `O=C(O)C1=CCCN(CCON=C(c2ccccc2)c2ccccc2)C1`, for which the IC50 was 0.18 µM in experiment [1], over 1000 µM against GABA transporter 2 and over 1000 µM at GABA transporter 3.
As to `O=C(CCN1CCCCC1)N1CCCC12CCCCC2`, the IC50 (in experiment [1]; on GABA transporter 2; against GABA transporter 3) was over 5000 µM throughout.
On to `C1CCC2(CC1)CCCN2`, for which the IC50 (in experiment [1]; on GABA transporter 2; at GABA transporter 3) was over 5000 µM in each case.
`O=C1C=CC2(CCCC23OCCO3)N1C(=O)CCN1CCNCC1` (stereo not given): the IC50 (in experiment [1]; on GABA transporter 2; on GABA transporter 3) was over 1000 µM each time.
Consider `O=C(CCN1CCCC1)N1CCCC12CCCCC2`, for which the IC50 (in experiment [1]; at GABA transporter 2; at GABA transporter 3) was over 5000 µM each time.
Turning to `O=C(CBr)N1C(=O)CCC12CCCCC2`, the IC50 in experiment [1] was 371 µM; against GABA transporter 2 it was 103 µM; on GABA transporter 3, over 1000 µM.
Regarding `C=CCN1C(=O)CCC12CCCC21OCCO1` (stereo not given), the IC50 (in experiment [1]; against GABA transporter 2; on GABA transporter 3) was over 1000 µM in each case.
`O=C1CCC2(CCCCC2)N1`: the IC50 (in experiment [1]; against GABA transporter 2; against GABA transporter 3) was over 5000 µM throughout.
Turning to `O=C(CCN1CCNCC1)N1CCCC12CCCCC2`, the IC50 (in experiment [1]; at GABA transporter 2; against GABA transporter 3) was over 1000 µM throughout.
With `O=C1C=CC2(CCCC23OCCO3)N1C(=O)CCN1CCOCC1` (stereo not given), the IC50 (in experiment [1]; at GABA transporter 2; against GABA transporter 3) was over 1000 µM in each case.
On to `CCOC(=O)C1CCCN(CCC(=O)N2CCCC23CCCCC3)C1` (stereo not given), for which the values for the IC50 (in experiment [1]; at GABA transporter 2; against GABA transporter 3) were over 5000 µM, over 5000 µM and 2330 µM, respectively.
As to `O=C(CCN1CCOCC1)N1CCCC12CCCCC2`, the IC50 (in experiment [1]; at GABA transporter 2; on GABA transporter 3) was over 5000 µM in each case.
With `C=CC(=O)N1CCCC12CCCCC2`, the IC50 in experiment [1] is over 5000 µM; against GABA transporter 2 it was over 5000 µM; at GABA transporter 3, 3020 µM.
For `O=C(CBr)N1C(=O)CCC12CCCCC2=O` (stereo not given), the IC50 (in experiment [1]; at GABA transporter 2; against GABA transporter 3) was over 1000 µM each time.
With `O=C(CCN1CCNCC1)N1C(=O)CCC12CCCCC2`, the IC50 (in experiment [1]; on GABA transporter 2; on GABA transporter 3) was over 1000 µM each time.
As to `COC(=O)C1=CCCN(CCC(=O)N2CCCC23CCCCC3)C1`, the IC50 turned out to be 2050 µM in experiment [1], 2300 µM at GABA transporter 2 and 3230 µM at GABA transporter 3.
For the compound `O=C(CCl)N1C(=O)CCC12CCCCC2`, the IC50 (in experiment [1]; at GABA transporter 2; on GABA transporter 3) was over 1000 µM each time.
Consider `O=C(CCN1CCCCC1)N1C(=O)CCC12CCCCC2`, for which the IC50 (in experiment [1]; against GABA transporter 2; at GABA transporter 3) was over 1000 µM each time.
For `O=C(CCN1CCCC1)N1C(=O)CCC12CCCCC2`, the IC50 (in experiment [1]; on GABA transporter 2; against GABA transporter 3) was over 1000 µM each time.
For `O=C1CCC2(CCCCC2=O)N1` (stereo not given), the IC50 (in experiment [1]; against GABA transporter 2; against GABA transporter 3) was over 1000 µM throughout.
For `[N-]=[N+]=NCC(=O)N1C(=O)CCC12CCCCC2`, the IC50 (in experiment [1]; against GABA transporter 2; against GABA transporter 3) was over 1000 µM throughout.
The compound `COc1ccc(C(OCCN2CCC[C@H](C(=O)O)C2)(c2ccc(OC)cc2)c2ccc(OC)cc2)cc1` registered an IC50 on GABA transporter 2 of over 1000 µM.
With `CCN(CC)CCC(=O)N1C(=O)CCC12CCCCC2`, the 50% inhibitory concentration (IC50) (in experiment [1]; on GABA transporter 2; on GABA transporter 3) was over 1000 µM in each case.
Regarding `O=C(O)C1=CCCNC1` [GUVACINE], the IC50 in experiment [1] is 20.9 µM; at GABA transporter 2, over 1000 µM; at GABA transporter 3, 72.4 µM.
`CCOC(=O)C1CCCN(CCC(=O)N2C(=O)C=CC23CCCC32OCCO2)C1` (stereo not given): the IC50 (in experiment [1]; against GABA transporter 2; at GABA transporter 3) was over 1000 µM throughout.
Consider `O=C(CI)N1C(=O)CCC12CCCCC2`, for which the IC50 (in experiment [1]; at GABA transporter 2; on GABA transporter 3) was over 1000 µM in each case.

For orientation: IC50 means the point on the concentration scale where inhibition reaches its midpoint.
